Test results reported in patent US20200155575A1, “PHARMACEUTICAL COMPOSITION AND METHODS” (priority 2014, published 2020).

Assay: Solubility in pharmaceutically acceptable carriers/excipients
Type: physicochemical
Description: The solubility of (8R,9S,10R,13S,14S,17S)-10,13-dimethyl-3-oxo-1,2,6,7,8,9,11,12,14,15,16,17-dodecahydrocyclopenta[a]phenanthren-17-yl tridecanoate was determined in the solvents (typical pharmaceutical carriers) listed below.

With `CCCCCCCCCCCCC(=O)O[C@H]1CC[C@H]2[C@@H]3CCC4=CC(=O)CC[C@]4(C)[C@H]3CC[C@]12C` [testosterone tridecanoate, (8R,9S,10R,13S,14S,17S)-10,13-dimethyl-3-oxo-1,2,6,7,8,9,11,12,14,15,16,17-dodecahydrocyclopenta[a]phenanthren-17-yl tridecanoate] the “Solubility mg/g at ~20-23° C.” value (solvent Benzyl Alcohol) was 322 mg/g, the “Solubility mg/g at ~20-23° C.” value (solvent Benzyl Benzoate) was 223 mg/g and the “Solubility mg/g at ~20-23° C.” value (solvent Castor Oil) was 55 mg/g. For the same molecule, the “Solubility mg/g at ~20-23° C.” value (solvent Corn glycerides -Maisine) was 77 mg/g, the “Solubility mg/g at ~20-23° C.” value (solvent Corn oil) was 35 mg/g and the “Solubility mg/g at ~20-23° C.” value (solvent Cremophor RH40) was 10 mg/g. The “Solubility mg/g at ~20-23° C.” value (solvent Ethanol) was 27 mg/g, the “Solubility mg/g at ~20-23° C.” value (solvent Fatty Acid -Oleic acid) was 114 mg/g and the “Solubility mg/g at ~20-23° C.” value (solvent Medium chain glycerides-Capmul) was 68 mg/g. For the same molecule, the “Solubility mg/g at ~20-23° C.” value (solvent Olive Oil) was 38 mg/g and the “Solubility mg/g at ~20-23° C.” value (solvent Peppermint Oil) was ~200 mg/g.
